US20010053796A1, “Delta-aminolevulinic acid for prevention and treatment of infection microorganisms and parasite” (priority 2000, published 2001)

Tests used:
Pseudomonas sp. = assay: Treatment effect of infected fry by digestion in breeding water; assay type: in vivo, Bastardhalibut; details: 50 fish
Method: (§1) To be used as experimental fish in this example, fry of Bastardhalibut and Sebastes schlegeli (mean body weight 2 g), 50 per each breeding tank, were preliminary-bred for 1 week and stabilized. […] The artificial infection methods were carried out by the digestion method. Pathogenic organisms were applied into fish tanks and digested in seawater, wherein the concentration of organisms has adjusted to 10^4 CFU/mL for an hour, and infected. Treatment conditions are as follows. After artificial infection. Infected fishes were moved to fish tanks and kept in the infection period for 3 days. On the fourth day of infection, 0.1, 1.0, 5 and 10 ppm δ-aminolevulinic acid were introduced to use as breeding water. Fish was bred in aerobic condition for 1˜24 hours without exchanging water and then, bred for 2 weeks after exchanging with clean seawater. Then, they were monitored to check for the mortality of fish according to infection. In the control groups, after each bacteria were identically introduced through the digestion method, mortality of Bastardhalibut and Sebastes schlegeli according to bacteria infection was identified while breeding with non-treated condition of δ-aminolevulinic acid. As a result of this experiment, δ-aminolevulinic acid-treated groups have shown high viability in both Bastardhalibut (Table 12˜Table 15) and Sebastes schlegeli (Table 16˜Table 19).

Streptococcus sp. [1] = assay: as above; assay type: in vivo, Bastardhalibut; details: 50 fish
Method: as §1

Staphylococcus sp. = assay: as above; assay type: in vivo, Bastardhalibut; details: 50 fish
Method: as §1

Staphylococcus epidermis = assay: as above; assay type: in vivo, Bastardhalibut; details: 50 fish
Method: as §1

Vibrio anguillarum [2] = assay: as above; assay type: in vivo, Bastardhalibut; details: 50 fish
Method: as §1

Edwardsiella tarda [3] = assay: as above; assay type: in vivo, Bastardhalibut; details: 50 fish
Method: as §1

Streptococcus sp. [4] = assay: Proliferation inhibition of pathogenic bacteria in BHI broth (620 nm); assay type: cell-based; details: product on the market (Sigma)
Method: (§2) Pathogenic index bacteria used in this experiment are Edwardsiella tard, Streptococcus sp., Staphylococcus sp., Staphylococcus epidermidis, Pseudomonas sp., Vibrio anguillarum which are collected from the marine fish farm nearby Yeosu. In solid culture, they were cultured in TSA (tryptic soy agar) supplemented with 0.2% NaCl flat media and in liquid culture, they were prepared by culturing in BHI broth for 24 hrs and setting the O.D. value as 1.0. δ-aminolevulinic acid used in this experiment were one on the market (Sigma) and one formulated by inventors of the present invention (Korean patent application No. 1998-41898). Each 0.167 g δ-aminolevulinic acid were dissolved in 1.0 mL sterilized distilled water was used as undiluted solution. 1.0 M δ-aminolevulinic acid was 2-fold diluted with BHI broth by stages up to 64-fold and prepared for test solution to examine pathogenic bacteria proliferation-prohibiting effect. […] In control group, instead of δ-aminolevulinic acid, BHI broth bacteria suspension were mixed with (1:1) and then observed with the same method above. MIC assay by δ-aminolevulinic acid for major pathogenic bacteria of marine cultivating fishes, Edwardsiella tard, Streptococcus sp., Staphylococcus sp., Staphylococcus epidermidis, Pseudomonas sp., Vibrio anguillarum was carried out by flat drug disc method. 100 μL of each bacteria in a culture solution was mixed with fixed amount of top agar and coated to TSA agar. 1.0 M δ-aminolevulinic acid solution was diluted by 2 folds in PBS and 10 μL of each dilution were absorbed to sterilized disc. After incubation at 23˜25° C. for 2˜3 days, antibacterial effect was indicated by measuring the size (mm) of clear zone. In control group, PBS was absorbed into disc instead of δ-aminolevulinic acid dilution solution with the same amount and observed. From the result of this experiment using δ-aminolevulinic acid on the market, proliferation-inhibiting effects of pathogenic bacteria according to δ-aminolevulinic acid concentration are shown in Table 2a (Edwardsiella tard) and Table 2b (Streptococcus sp.). Below 1/32 fold (31 mM) of δ-aminolevulinic acid dilution rate, proliferation of both bacteria was inhibited. […] The experimental result of δ-aminolevulinic acid prepared by the inventors has shown in Table 3 and no difference in effects from δ-aminolevulinic acid on the market.

Edwardsiella tarda [5] = assay: as above; assay type: cell-based; details: product on the market (Sigma)
Method: as §2

Vibrio anguillarum [6] = assay: Prevention effect for artificial infection (abdominal injection of bacteria); assay type: in vivo, Bastardhalibut; details: for Mortality during Cultivation: dead of 20 fish
Method: The water temperature was maintained at 20° C. (±2° C. ) throughout the experiment.
As the same method of above Experiment 1, fishes of both control group and experiment group were prepared and artificially infected by direct abdominal injection of Edwardsiella tarda 10^5 CFU per 1 fish. Each experimental fish was moved to fish tanks for monitoring and monitored for mortality according to infection for 2 weeks and viability after 2 weeks.
Bastardhalibut and Sebastes schlegeli were infected by Vibrio anguillarum through abdominal injection with the same method of fish breeding; δ-aminolevulinic acid treatment and artificial infection carried out in Experiment 1 and 2.

[7] = digestion 0.1 ppm from 4th day of infection, Bastard halibut fry
[8] = digestion 1.0 ppm from 4th day of infection, Bastardhalibut fry
[9] = digestion 5.0 ppm from 4th day of infection, in Bastard halibut
[10] = digestion 10 ppm from 4th day of infection
[11] = digestion 10 ppm from 4th day of infection, Bastardhalibut fry
[12] = digestion 5.0 ppm from 4th day of infection
[13] = above 1/64 fold (16 mM) dilution rate
[14] = below 1/32 fold (31 mM) dilution rate, 24 hrs, 25° C.

## NCC(=O)CCC(=O)O [δ-aminolevulinic acid]
Pseudomonas sp.; [7]
  Viability: 50%
Pseudomonas sp.; [8]
  Viability: 70%
Pseudomonas sp.; [9]
  Viability: 80%
Pseudomonas sp.; [10]
  Viability: 84%
Streptococcus sp. [1]; [7]
  Viability: 46%
Streptococcus sp. [1]; [8]
  Viability: 64%
Streptococcus sp. [1]; [9]
  Viability: 84%
Streptococcus sp. [1]; [11]
  Viability: 90%
Staphylococcus sp.; [7]
  Viability: 54%
Staphylococcus sp.; [8]
  Viability: 66%
Staphylococcus sp.; [12]
  Viability: 84%
Staphylococcus sp.; [11]
  Viability: 84%
Staphylococcus epidermis; [7]
  Viability: 42%
Staphylococcus epidermis; [8]
  Viability: 66%
Staphylococcus epidermis; [9]
  Viability: 80%
Staphylococcus epidermis; [10]
  Viability: 84%
Vibrio anguillarum [2]; [7]
  Viability: 56%
Vibrio anguillarum [2]; [8]
  Viability: 66%
Vibrio anguillarum [2]; [12]
  Viability: 84%
Vibrio anguillarum [2]; [11]
  Viability: 80%
Edwardsiella tarda [3]; [7]
  Viability: 54%
Edwardsiella tarda [3]; [8]
  Viability: 76%
Edwardsiella tarda [3]; [9]
  Viability: 86%
Edwardsiella tarda [3]; [11]
  Viability: 84%
Streptococcus sp. [4]; [13]
  proliferation of bacteria: no significant difference from the control group
Streptococcus sp. [4]; [14]
  proliferation of bacteria: inhibited
Edwardsiella tarda [5]; [13]
  proliferation of bacteria: no significant difference from the control group
Edwardsiella tarda [5]; [14]
  proliferation of bacteria: inhibited
Vibrio anguillarum [6]; orally, 0.1 ppm in feed
  Viability: 65%
  Mortality during Cultivation: 7
Vibrio anguillarum [6]; orally, 1.0 ppm in feed
  Viability: 55%
  Mortality during Cultivation: 9
Vibrio anguillarum [6]; orally, 10 ppm in feed
  Viability: 85%
  Mortality during Cultivation: 3
Vibrio anguillarum [6]; orally, 100 ppm in feed
  Viability: 90%
  Mortality during Cultivation: 2
Vibrio anguillarum [6]; to fish tanks, 0.01 ppm
  Viability: 65%
  Mortality during Cultivation: 7
Vibrio anguillarum [6]; to fish tanks, 0.1 ppm
  Viability: 65%
  Mortality during Cultivation: 7
Vibrio anguillarum [6]; to fish tanks, 1.0 ppm
  Viability: 80%
  Mortality during Cultivation: 2
Vibrio anguillarum [6]; to fish tanks, 10 ppm
  Viability: 85%
  Mortality during Cultivation: 3
